# ChEMBL document CHEMBL4627304, “DNA sequence-specific ligands. XVIII. Synthesis, physico-chemical properties; genetic, virological, and biochemical studies of fluorescent dimeric bisbenzimidazoles DBPA(n)” (Bioorg Med Chem, 2020)
# Calls of active or inactive are those of the source. The calls are words filed in the database; no cut-off is given here.
# Legend:
# Human alphaherpesvirus 1 = experiment: Antiviral activity against Herpes simplex virus 1 infected in African green monkey vero cells assessed as reduction in plaque formation treated 1 hr post viral infection by plaque reduction assay; format: functional, organism-based; details: Human alphaherpesvirus 1, Vero
# [1] = Selectivity index, ratio of CC50 for cytotoxicity against African green monkey Vero cells assessed as reduction in cell viability measured after 72 hrs by MTT assay to EC50 for antiviral activity against Herpes simplex virus 1 infected in African green monkey Vero cells assessed as reduction in plaque formation pretreated with compound for 1 hr followed by viral infection at 0.01 PFU/cells for 1 hr by plaque reduction assay; format: toxicity, cell-based; details: read-out: Ratio CC50/EC50
# [2] = Selectivity index, ratio of CC50 for cytotoxicity against African green monkey Vero cells assessed as reduction in cell viability measured after 72 hrs by MTT assay to EC50 for antiviral activity against Herpes simplex virus 1 infected in African green monkey vero cells assessed as reduction in plaque formation treated 1 hr post viral infection; format: toxicity, cell-based; details: read-out: Ratio CC50/EC50
# [3] = target: Human immunodeficiency virus type 1 integrase (Human immunodeficiency virus 1, UniProt Q7ZJM1); experiment: Inhibition of recombinant HIV1 integrase expressed in Escherichia coli Rosetta assessed as reduction in 3' end processing activity using [32P]-labelled U5B/U5A DNA as substrate measured after 2 hrs by polyacrylamide gel electrophoresis method
# Chain of Human immunodeficiency virus type 1 integrase (Q7ZJM1 whole entry): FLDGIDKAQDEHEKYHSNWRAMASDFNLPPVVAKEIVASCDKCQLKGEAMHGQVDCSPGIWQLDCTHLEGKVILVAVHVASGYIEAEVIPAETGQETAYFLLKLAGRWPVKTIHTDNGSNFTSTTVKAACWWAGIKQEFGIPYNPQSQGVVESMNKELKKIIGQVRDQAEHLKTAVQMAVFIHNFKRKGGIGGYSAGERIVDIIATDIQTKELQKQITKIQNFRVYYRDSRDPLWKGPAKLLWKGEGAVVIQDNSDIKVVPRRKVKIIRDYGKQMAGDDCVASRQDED
# Calf thymus DNA [4] = experiment: Binding affinity to calf thymus DNA assessed as hyperchromic effect by UV-Vis spectroscopy; format: nucleic-acid assay; details: Bos taurus
# Calf thymus DNA [5] = experiment: Binding affinity to calf thymus DNA assessed as appearance of positive band by cholesteric liquid crystal dispersion-based circular dichroism method; format: nucleic-acid assay; details: Bos taurus
# Aliivibrio fischeri [6] = experiment: Binding affinity to Aliivibrio fischeri H-NS dependent PluxC promoter assessed as luminescence intensity measured after 3 hrs by bioluminescence assay relative to control
# Aliivibrio fischeri [7] = experiment: Binding affinity to Aliivibrio fischeri H-NS dependent Prf promoter assessed as luminescence intensity measured after 3 hrs by bioluminescence assay relative to control
# Aliivibrio logei [8] = experiment: Binding affinity to Aliivibrio logei H-NS dependent Pr1 promoter assessed as luminescence intensity measured after 3 hrs by bioluminescence assay relative to control
# Aliivibrio logei [9] = experiment: Binding affinity to Aliivibrio logei H-NS dependent Pr2 promoter assessed as luminescence intensity measured after 3 hrs by bioluminescence assay relative to control
# HCT-116 = experiment: Cytotoxicity against human HCT116 cells assessed as reduction in cell viability by MTT assay; format: cell-based
# [10] = Cytotoxicity against human NKE cells assessed as reduction in cell viability by MTT assay; format: cell-based
# MCF7 = experiment: Cytotoxicity against human MCF7 cells assessed as reduction in cell viability by MTT assay; format: cell-based
# [11] = Drug penetration in human HCT116 cells nucleus at 200 uM measured after 2 days by fluorescence microscopy; format: ADME, subcellular; details: hct-116, 48 h
# [12] = Solubility of the compound in water; format: physicochemical; details: buffer
# Calf thymus DNA [13] = experiment: Binding affinity to calf thymus DNA by fluorescence spectra analysis; format: nucleic-acid assay; details: Bos taurus
# [14] = target: T1, Transcriptional activator protein LuxR (Aliivibrio fischeri) (UniProt P12746); experiment: (§1) Inhibition of Aliivibrio fischeri LuxR quorum sensing system expressed in Escherichia coli MG1655 pVFR1 harboring Prf promoter assessed as reduction in LuxR transcriptional activity by measuring Lux gene expression in presence of LuxR protein activator and presence of 10^-6 M AHL by bioluminescence assay relative to control
# T1 sequence (whole entry): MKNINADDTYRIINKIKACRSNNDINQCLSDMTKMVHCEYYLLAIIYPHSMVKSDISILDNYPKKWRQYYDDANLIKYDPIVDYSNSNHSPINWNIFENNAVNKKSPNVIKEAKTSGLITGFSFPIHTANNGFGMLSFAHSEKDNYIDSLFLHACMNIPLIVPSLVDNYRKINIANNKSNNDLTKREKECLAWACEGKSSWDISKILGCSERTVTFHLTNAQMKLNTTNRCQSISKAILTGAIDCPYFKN
# [15] = target: T1, Transcriptional activator protein LuxR (Aliivibrio fischeri); experiment: as §1, with “10^-7” for “10^-6”
# [16] = target: T1, Transcriptional activator protein LuxR (Aliivibrio fischeri); experiment: as §1, with “10^-8” for “10^-6”
# [17] = target: T1, Transcriptional activator protein LuxR (Aliivibrio fischeri); experiment: as §1, with “and absence” for “and presence”, “of” for “of 10^-6 M”
compound,measurement,setting,value
CN(C)CCCNC(=O)c1ccc2nc(-c3ccc4nc(CN)[nH]c4c3)[nH]c2c1,EC50,Human alphaherpesvirus 1,27 mg/L
same,selectivity ratio at 72 h,[1],11
same,selectivity ratio at 72 h,[2],35
CN1CCN(c2ccc3nc(-c4ccc5nc(CNC(=O)CCN6CCN(CCC(=O)NCc7nc8ccc(-c9nc%10ccc(N%11CCN(C)CC%11)cc%10[nH]9)cc8[nH]7)CC6)[nH]c5c4)[nH]c3c2)CC1,IC50,[3],7 µM
CN(C)CCCNC(=O)c1ccc2nc(-c3ccc4nc(CNC(=O)CCCCN5CCN(CCCCC(=O)NCc6nc7ccc(-c8nc9ccc(C(=O)NCCCN(C)C)cc9[nH]8)cc7[nH]6)CC5)[nH]c4c3)[nH]c2c1,Activity,Calf thymus DNA [4],Active
same,Activity,Calf thymus DNA [5],Active
same,Flu intensity,Aliivibrio fischeri [6],3500
same,Flu intensity,Aliivibrio fischeri [7],4300
same,Flu intensity,Aliivibrio logei [8],1000
same,Flu intensity,Aliivibrio logei [9],1800
same,EC50,Human alphaherpesvirus 1,31 mg/L
same,selectivity ratio at 72 h,[2],34
same,IC50,[3],1.1 µM
same,IC50,HCT-116,> 500 µM
same,IC50,[10],> 500 µM
same,IC50,MCF7,> 500 µM
same,Drug uptake,[11],Active
same,solubility,[12],Soluble
CN1CCN(c2ccc3nc(-c4ccc5nc(CNC(=O)CCCCN6CCN(CCCCC(=O)NCc7nc8ccc(-c9nc%10ccc(N%11CCN(C)CC%11)cc%10[nH]9)cc8[nH]7)CC6)[nH]c5c4)[nH]c3c2)CC1,IC50,[3],3.9 µM
CN1CCN(c2ccc3nc(-c4ccc5nc(CNC(=O)CN6CCN(CC(=O)NCc7nc8ccc(-c9nc%10ccc(N%11CCN(C)CC%11)cc%10[nH]9)cc8[nH]7)CC6)[nH]c5c4)[nH]c3c2)CC1,IC50,[3],> 15 µM
Nc1nc2c(ncn2COCCO)c(=O)[nH]1 [ACYCLOVIR],EC50,Human alphaherpesvirus 1,1.2 mg/L
same,selectivity ratio at 72 h,[1],86
same,selectivity ratio at 72 h,[2],916
CN1CCN(c2ccc3nc(-c4ccc5nc(CNC(=O)CCCN6CCN(CCCC(=O)NCc7nc8ccc(-c9nc%10ccc(N%11CCN(C)CC%11)cc%10[nH]9)cc8[nH]7)CC6)[nH]c5c4)[nH]c3c2)CC1,IC50,[3],9.9 µM
CN(C)CCCNC(=O)c1ccc2nc(-c3ccc4nc(CNC(=O)CN5CCN(CC(=O)NCc6nc7ccc(-c8nc9ccc(C(=O)NCCCN(C)C)cc9[nH]8)cc7[nH]6)CC5)[nH]c4c3)[nH]c2c1,Flu intensity,Aliivibrio fischeri [6],38000
same,Flu intensity,Aliivibrio fischeri [7],4100
same,Flu intensity,Aliivibrio logei [8],1700
same,Flu intensity,Aliivibrio logei [9],18000
same,EC50,Human alphaherpesvirus 1,16.7 mg/L
same,selectivity ratio at 72 h,[1],5750
same,selectivity ratio at 72 h,[2],34
same,IC50,[3],2.1 µM
same,IC50,HCT-116,> 200 µM
same,IC50,[10],> 200 µM
same,IC50,MCF7,> 200 µM
same,Drug uptake,[11],Active
same,solubility,[12],Soluble
CN(C)CCCNC(=O)c1ccc2nc(-c3ccc4nc(CNC(=O)CCCN5CCN(CCCC(=O)NCc6nc7ccc(-c8nc9ccc(C(=O)NCCCN(C)C)cc9[nH]8)cc7[nH]6)CC5)[nH]c4c3)[nH]c2c1,Activity,Calf thymus DNA [13],Active
same,Flu intensity,Aliivibrio fischeri [6],17000
same,Flu intensity,Aliivibrio fischeri [7],4400
same,Flu intensity,Aliivibrio logei [8],3300
same,Flu intensity,Aliivibrio logei [9],50000
same,EC50,Human alphaherpesvirus 1,15 mg/L
same,selectivity ratio at 72 h,[1],95
same,selectivity ratio at 72 h,[2],70
same,IC50,[3],1.8 µM
same,IC50,HCT-116,> 500 µM
same,IC50,[10],> 500 µM
same,IC50,MCF7,> 500 µM
same,Drug uptake,[11],Active
same,solubility,[12],Soluble
CN(C)CCCNC(=O)c1ccc2nc(-c3ccc4nc(CNC(=O)CCN5CCN(CCC(=O)NCc6nc7ccc(-c8nc9ccc(C(=O)NCCCN(C)C)cc9[nH]8)cc7[nH]6)CC5)[nH]c4c3)[nH]c2c1,Activity,Calf thymus DNA [4],Active
same,Activity,Calf thymus DNA [13],Active
same,Activity,Calf thymus DNA [5],Active
same,Flu intensity,Aliivibrio fischeri [6],110000
same,Flu intensity,Aliivibrio fischeri [7],122000
same,Flu intensity,Aliivibrio logei [8],210000
same,Flu intensity,Aliivibrio logei [9],150000
same,fold change (FC),[14],8
same,fold change (FC),[15],3
same,fold change (FC),[16],1
same,EC50,Human alphaherpesvirus 1,30 mg/L
same,selectivity ratio at 72 h,[1],703
same,selectivity ratio at 72 h,[2],18
same,IC50,[3],2.6 µM
same,IC50,HCT-116,> 300 µM
same,IC50,[10],> 300 µM
same,IC50,MCF7,> 300 µM
same,Drug uptake,[11],Active
same,fold change (FC),[17],27
same,solubility,[12],Soluble
